From PubChem BioAssay AID248 (DTP/NCI, 2004)
Several values for one entry are separate records, joined by “and”; a condition that tells them apart may be missing. Identical values can stand only once. Inconclusive results and toxic doses are left out. No stated cut-off is given here; in the data, active means T/C of 150% or more; inactive means T/C below 125%.

Test system: L1210 leukemia ip in BDF1 mice, survival T/C
Test: NCI In Vivo Anticancer Drug Screen. Data for tumor model L1210 Leukemia (intraperitoneal) in B6D2F1 (BDF1) mice
Conditions: endpoint: mean survival time, higher = longer survival
Summary of the method: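 Each compound was tested against a transplantable tumor grown in mice. The endpoint was survival, with treated animals benchmarked against vehicle controls as a simple ratio.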

[1] = dose: 100.0 mg/kg/injection, schedule: Q01DX009 (ip), vehicle: gum acacia
[2] = dose: 100.0 mg/kg/injection, schedule: Q04DX003 (ip), vehicle: gum acacia
[3] = dose: 200.0 mg/kg/injection, schedule: Q01DX009 (ip), vehicle: gum acacia
[4] = dose: 200.0 mg/kg/injection, schedule: Q04DX003 (ip), vehicle: gum acacia
[5] = dose: 100.0 mg/kg/injection, schedule: Q04DX003 (ip), vehicle: saline
[6] = dose: 200.0 mg/kg/injection, schedule: Q04DX003 (ip), vehicle: saline
[7] = dose: 400.0 mg/kg/injection, schedule: Q04DX003 (ip), vehicle: saline
[8] = dose: 100.0 mg/kg/injection, schedule: Q01DX009 (ip), vehicle: saline
[9] = dose: 200.0 mg/kg/injection, schedule: Q01DX009 (ip), vehicle: saline
[10] = dose: 400.0 mg/kg/injection, schedule: Q01DX009 (ip), vehicle: saline
[11] = dose: 100.0 mg/kg/injection, schedule: Q01DX001 (ip), vehicle: saline
[12] = dose: 200.0 mg/kg/injection, schedule: Q01DX001 (ip), vehicle: saline
[13] = dose: 400.0 mg/kg/injection, schedule: Q01DX001 (ip), vehicle: saline
[14] = dose: 100.0 mg/kg/injection, schedule: Q04DX002 (ip), vehicle: Klucel (hydroxypropylcellulose) (HPC)
[15] = dose: 100.0 mg/kg/injection, schedule: Q04DX003 (ip), vehicle: saline with Tween-80
[16] = dose: 200.0 mg/kg/injection, schedule: Q04DX003 (ip), vehicle: saline with Tween-80
[17] = dose: 200.0 mg/kg/injection, schedule: Q04DX002 (ip), vehicle: Klucel (hydroxypropylcellulose) (HPC)
[18] = dose: 400.0 mg/kg/injection, schedule: Q04DX002 (ip), vehicle: Klucel (hydroxypropylcellulose) (HPC)
[19] = dose: 100.0 mg/kg/injection, schedule: Q01DX009 (ip), vehicle: Klucel (hydroxypropylcellulose) (HPC)
[20] = dose: 200.0 mg/kg/injection, schedule: Q01DX009 (ip), vehicle: Klucel (hydroxypropylcellulose) (HPC)
[21] = dose: 400.0 mg/kg/injection, schedule: Q01DX009 (ip), vehicle: Klucel (hydroxypropylcellulose) (HPC)
[22] = dose: 100.0 mg/kg/injection, schedule: Q01DX001 (ip), vehicle: carboxymethylcellulose (CMC)
[23] = dose: 200.0 mg/kg/injection, schedule: Q01DX001 (ip), vehicle: carboxymethylcellulose (CMC)
[24] = dose: 400.0 mg/kg/injection, schedule: Q01DX001 (ip), vehicle: carboxymethylcellulose (CMC)

Measured: T/C

COc1ccc(C2NC(=S)N3C(c4ccc(OC)c(OC)c4)NC(=S)N23)cc1OC (configuration not stated)
inactive: [1] 88 % of control | [2] 95 % of control | [3] 88 % of control | [4] 89 % of control | dose: 400.0 mg/kg/injection, schedule: Q01DX009 (ip), vehicle: gum acacia 90 % of control

CCC(N)(C(=O)O)C1CCCCC1 (configuration not stated)
inactive: [5] 96 % of control | [6] 94 % of control | [7] 93 % of control

CN(C)CC1CC(=O)C(CN(C)C)CC1=O (configuration not stated)
inactive: dose: 5.0 mg/kg/injection, schedule: Q01DX001 (ip), vehicle: saline 92 % of control | dose: 10.0 mg/kg/injection, schedule: Q01DX001 (ip), vehicle: saline 107 % of control | dose: 20.0 mg/kg/injection, schedule: Q01DX001 (ip), vehicle: saline 104 % of control | dose: 40.0 mg/kg/injection, schedule: Q01DX001 (ip), vehicle: saline 103 % of control

CCOCCCCO
inactive: [8] 96 % of control | [9] 92 % of control | [10] 94 % of control

CC(C)(C)CC(C)(C)N=Cc1ccccc1
inactive: [11] 98 % of control | [12] 105 % of control | [13] 88 % of control

Cc1c(O)c(CN2CCOCC2)cc(CN2CCOCC2)c1O
inactive: [11] 86 % of control | [12] 90 % of control | [13] 86 % of control

CC(=O)OCCc1ccc(C)cc1
inactive: dose: 100.0 mg/kg/injection, schedule: Q04DX002 (ip), vehicle: saline with Tween-80 94 % of control | dose: 200.0 mg/kg/injection, schedule: Q04DX002 (ip), vehicle: saline with Tween-80 97 % of control | dose: 400.0 mg/kg/injection, schedule: Q04DX002 (ip), vehicle: saline with Tween-80 94 % of control

Cc1cc(C(C)(C)C)ccc1SC(=O)Nc1cc([N+](=O)[O-])ccc1Cl
inactive: dose: 100.0 mg/kg/injection, schedule: Q01DX001 (ip), vehicle: gum acacia 94 % of control and 95 % of control | [1] 103 % of control | dose: 100.0 mg/kg/injection, schedule: Q04DX002 (ip), vehicle: gum acacia 99 % of control and 105 % of control | [2] 97 % of control and 108 % of control | dose: 200.0 mg/kg/injection, schedule: Q01DX001 (ip), vehicle: gum acacia 95 % of control and 97 % of control | [3] 102 % of control | dose: 200.0 mg/kg/injection, schedule: Q04DX002 (ip), vehicle: gum acacia 103 % of control and 115 % of control | [4] 96 % of control and 99 % of control | dose: 400.0 mg/kg/injection, schedule: Q01DX001 (ip), vehicle: gum acacia 94 % of control and 95 % of control | dose: 400.0 mg/kg/injection, schedule: Q04DX002 (ip), vehicle: gum acacia 101 % of control and 105 % of control | dose: 400.0 mg/kg/injection, schedule: Q04DX003 (ip), vehicle: gum acacia 101 % of control and 91 % of control

NC(=O)Nc1cc(NC(N)=O)cc([N+](=O)[O-])c1
inactive: [8] 95 % of control | [5] 110 % of control | [9] 88 % of control | [6] 104 % of control | [10] 93 % of control | [7] 110 % of control

COc1cc(/C=N/N)cc(OC)c1OC
inactive: dose: 25.0 mg/kg/injection, schedule: Q04DX002 (ip), vehicle: Klucel (hydroxypropylcellulose) (HPC) 117 % of control | dose: 50.0 mg/kg/injection, schedule: Q04DX002 (ip), vehicle: Klucel (hydroxypropylcellulose) (HPC) 117 % of control | [14] 98 % of control and 109 % of control

C/C=C1\CN2CCc3c([nH]c4ccccc34)C2CC1CC(=O)N(C)C (configuration not stated)
inactive: [15] 96 % of control | [16] 88 % of control

CCCCC(CC)CSCC(CC)CCCC (configuration not stated)
inactive: dose: 100.0 mg/kg/injection, schedule: Q04DX003 (ip), vehicle: saline sonified 97 % of control | dose: 200.0 mg/kg/injection, schedule: Q04DX003 (ip), vehicle: saline sonified 93 % of control | dose: 400.0 mg/kg/injection, schedule: Q04DX003 (ip), vehicle: saline sonified 97 % of control

O=C(On1c(-c2ccccc2)cc2ccccc21)c1ccc([N+](=O)[O-])cc1
inactive: [14] 104 % of control | [17] 111 % of control | [18] 96 % of control

CC(=O)Nc1ccc(OC(=O)Nc2ccccc2F)cc1
inactive: [19] 98 % of control | [20] 101 % of control | [21] 106 % of control

O=C(Nc1ccc([As](=O)(O)O)cc1)Nc1cccc(Cl)c1Cl
inactive: [19] 100 % of control | [14] 100 % of control | [20] 100 % of control | [17] 92 % of control | [18] 110 % of control

CCCCOc1ccc(OC(=O)Nc2cccc(C(C)=O)c2)cc1
inactive: [19] 108 % of control | [20] 96 % of control | [21] 96 % of control

COc1cccc(/C(C)=C2\SC(=S)NC2=O)c1
inactive: [22] 100 % of control | [23] 94 % of control

O=S(=O)(OCC#CCOS(=O)(=O)c1cccs1)c1cccs1
inactive: dose: 6.2 mg/kg/injection, schedule: Q01DX009 (ip), vehicle: Klucel (hydroxypropylcellulose) (HPC) 101 % of control | dose: 12.5 mg/kg/injection, schedule: Q01DX009 (ip), vehicle: Klucel (hydroxypropylcellulose) (HPC) 111 % of control | dose: 25.0 mg/kg/injection, schedule: Q01DX009 (ip), vehicle: Klucel (hydroxypropylcellulose) (HPC) 105 % of control | dose: 100.0 mg/kg/injection, schedule: Q01DX001 (ip), vehicle: Klucel (hydroxypropylcellulose) (HPC) 109 % of control | dose: 100.0 mg/kg/injection, schedule: Q04DX003 (ip), vehicle: Klucel (hydroxypropylcellulose) (HPC) 97 % of control | dose: 200.0 mg/kg/injection, schedule: Q01DX001 (ip), vehicle: Klucel (hydroxypropylcellulose) (HPC) 106 % of control | dose: 200.0 mg/kg/injection, schedule: Q04DX003 (ip), vehicle: Klucel (hydroxypropylcellulose) (HPC) 105 % of control | dose: 400.0 mg/kg/injection, schedule: Q01DX001 (ip), vehicle: Klucel (hydroxypropylcellulose) (HPC) 103 % of control

O=C(O)/C(S)=C/c1ccc2c(c1)OCO2
inactive: [22] 100 % of control | [23] 102 % of control | [24] 102 % of control

Nc1nc(CNc2ccc(Cl)cc2)nc(Nc2ccc(Cl)cc2)n1
inactive: [15] 89 % of control | [16] 95 % of control | dose: 400.0 mg/kg/injection, schedule: Q04DX003 (ip), vehicle: saline with Tween-80 95 % of control

CCc1ccc(N=Nc2ccc(N)cc2)cc1
inactive: [22] 101 % of control | [23] 89 % of control | [24] 93 % of control

CC(C)C[As](C)(=O)O
inactive: dose: 66.0 mg/kg/injection, schedule: Q01DX009 (ip), vehicle: saline 107 % of control | [8] 115 % of control | dose: 150.0 mg/kg/injection, schedule: Q01DX009 (ip), vehicle: saline 94 % of control

Nc1nc(Nc2cccc(Cl)c2)cc(=O)[nH]1
inactive: dose: 100.0 mg/kg/injection, schedule: Q01DX Z (ip), vehicle: methylcellulose (MC) 90 % of control | dose: 200.0 mg/kg/injection, schedule: Q01DX Z (ip), vehicle: methylcellulose (MC) 99 % of control
